What was measured:
T. congolense KONT 2/133 = assay: Cattle efficacy for compound 1, SC (Clinvet); type: in vivo, Trypanosoma congolense; conditions: for Animals negative for parasites / Animals positive for parasites: 5 mg/kg SC twice 12 h apart
Text: However, following the cessation of treatment, parasitaemia quickly re-emerged to such an extent that after 4 days, all calves were positive. It should be noted that in this study, calves were infected with a highly virulent T. congolense isolate known to be resistant to established anti-trypanosomal agents diminazene and isometamidium. Testing compounds in this model represents a rigorous test of efficacy; thus, the observed reduction in parasite numbers in calves dosed with compound 1 was very encouraging. […]
3.3 Cattle efficacy for compound 1 (Clinvet)
In each of the cattle efficacy studies (3.3, 3.4 and 3.5), efficacy was assessed primarily on absence of recrudescence of parasitaemia for 100 days after treatment administration together with improvements in Packed Cell Volume, body weight and clinical signs of infected compared with uninfected animals. Assessment of parasitaemia was based on phase contrast buffy coat examinations and confirmation by PCR at 100 d.
Friesian-Holstein calves, weaned for at least 2 months and with a minimum age of 4 months, housed in a fly-proof building, were infected with Trypanosoma conglense (savannah) KONT 2/133, at a dose of 110,000 parasites (study day 0) via IV infusion. The parasites were obtained from a donor calf. This isolate is resistant to diminazene (20 mg/kg) and isometamidium (1 mg/kg) in cattle, and diminazene (7 mg/kg) and isometamidium (>1 mg/kg) in mice. Calves were parasitaemic by study day 6. Calves (n = 5) were treated with compound 1 (5 mg/kg, SC, twice 12 h apart) on study […]
day at 25 mg/ml in NMP/ 2-pyrrolidinone/ PEG400 water 10/40/30/20. Control groups were comprised of un-infected calves, infected but un-treated calves (n = 6) and calves treated with diminazene (n = 3) or isometamidium (n = 3). The calves were randomised to treatments. Calves were monitored daily for parasitaemia and packed cell volume (PCV) via blood sampling and through […]
One day after treatment, 80% of the animals in the treatment group were negative for parasites.
After 3 d, 100% of the animals in the treatment groups were negative for parasites. After 5 d, 40% of the animals were positive for parasites. […]

[1] = system: T. brucei CRK12 (Tb927.11.12310) edited parasites; assay: Sensitivity of CRISPR-Cas9-edited CRK12 T. brucei compared to wild-type; type: cell-based, Trypanosoma brucei
Text: Three unbiased and independent approaches converged to identify CRK12 as the likely target of compound 2. Next, we used CRISPR-Cas9 precision base editing to interrogate the role of CRK12-related mutations in resistance.[16] A codon-targeted saturation mutagenesis strategy was used to investigate mutations that could support resistance to compound 2 at positions 482 or 492. This was achieved using repair templates randomized (NNN) in these specific positions. […] These edited parasites were 133-fold less sensitive to compound 2 compared to wild-type parasites. In contrast, several different amino acids (Ile, Gln, Met, and Val) were tolerated in position 492. Each mutation conferred differing levels of resistance to compound 2, for instance, parasites bearing a Gly492Val edit were eightfold more tolerant to the compound than wild-type cells, while a Gly492Gln mutation led to 32-fold resistance (Figure 4B); parasites bearing a Gly492Ile or a Gly492Met edit behaved similarly to parasites bearing a Gly492Gln edit. […] This is most likely explained by the pronounced growth defect associated with all three of our resistant clones (R1–3) that harbor this specific mutation. […]
overall quality score (QUAL) was >100. Artemis13 was used to analyse chromosome and gene copy number variation (CNV), as well as visualisation of SNPs.
4.3 RIT-seq screening, Illumina sequencing and analysis
The RIT-seq library screening was performed as described previously.14 The RNAi library was maintained with blasticidin (1 µg ml-1) and phleomycin (1 µg ml-1) at a minimum of 2 x 10^7 cells. […]
Reads were mapped to the T. brucei 927 reference genome (v39; TriTrypDB [http://tritrypdb.org/]) using Bowtie 2 software,10 with the following parameter: --very-sensitive-local. Following manipulation with SAMtools11 the alignment files were searched with a custom script to identify reads with the following barcode: GCCTCGCGA.14 The total and barcoded reads were then quantified using the Artemis genome browser.15 […]

[2] = 5 mg/kg SC given twice at 12 h intervals

Compound | Parasitaemia in calves (T. congolense KONT 2/133; [2]) | Time after cessation of treatment until all calves were positive (T. congolense KONT 2/133; [2]) [days] | Animals negative for parasites (T. congolense KONT 2/133; after 3 d) [%] | Animals positive for parasites (T. congolense KONT 2/133; after 5 d) [%] | Animals positive for parasites (T. congolense KONT 2/133; after 6 d) [%] | Animals positive for parasites (T. congolense KONT 2/133; after 8 days) [%] | Animals negative for parasites (T. congolense KONT 2/133; one day after treatment) [%] | Resistance compared to wild-type ([1]; CRK12 Gly492Gln edit) [fold] | Tolerance compared to wild-type ([1]; CRK12 Gly492Val edit) | Loss of sensitivity compared to wild-type ([1]; CRK12 Leu482Phe edit) [fold]
CC(C)CS(=O)(=O)N[C@H]1CC[C@H](Nc2nc(N)c(C(=O)c3c(F)cccc3F)s2)CC1 [Compound 1, N-((trans)-4-((4-Amino-5-(2,6-difluorobenzoyl)thiazol-2-yl)amino)cyclohexyl)-2-methylpropane-1-sulfonamide] | suppressed below the level of detection | 4 | 100 | 40 | 80 | 100 | 80 |  |  | 
CC(C)CS(=O)(=O)N[C@H]1CC[C@H](Nc2nc(N)c(C(=O)c3c(F)cc(CN(C)C)cc3F)s2)CC1 [Compound 2, N-(trans)-[4-[[4-Amino-5-[4-(dimethylaminomethyl)-2,6-difluoro-benzoyl]thiazol-2-yl]amino]cyclohexyl]-2-methyl-propane-1-sulfonamide] |  |  |  |  |  |  |  | 32 | eightfold | 133

Reference: PMC9014415, “Repositioning of a Diaminothiazole Series Confirmed to Target the Cyclin-Dependent Kinase CRK12 for Use in the Treatment of African Animal Trypanosomiasis” (Journal of Medicinal Chemistry, 2022)
